Measurements: patent publication US12037354B2, “Cyclic pantetheine derivatives and uses thereof” (VectivBio Comet AG, priority 2018, dated 2024)
Read-outs that look alike come from different tables or passages of the source.

System: HepG2 cells
Test: Glucose uptake Glo Assay, Example 821
Assay type: cell-based
Conditions: for activation at 10 µM / activation at 50 µM: Homo sapiens, 20 min, read-out: % increase in Glucose Uptake
Experimental: The effect of compounds from the present disclosure on glucose uptake was determined in HepG2 cells (ATCC, HB-8065) using the glucose uptake Glo Assay Kit (Promega, 11343 according to manufacturer instructions. HepG2 cells were cultured in complete DMEM-glucose media (Gibco) supplemented with 10% FBS (37° C. incubator with 5% CO2) and seeded in 96-well plates at 30,000 cells/well. After removing the complete media, 100 μL/well of serum-free, high-glucose DMEM media were added to the wells and incubated overnight (37° C. incubator with 5% CO2). Media was then replaced with 100 μl/well DPBS containing 0.6°/o BSA and starved for 1 hour. Next, DPBS was removed and 45 μl/well of insulin (100 nM) or compounds (10 μM-50 μM) were added to the wells and incubated for 10 minutes (37° C. incubator with 5% CO2). Insulin and compounds were prepared in DPBS with 0.6% BSA with a final DMSO concentration of 0.1%. Next, 5 μl of 2DG (10 mM) in DPBS were added per well and allowed to incubate for 20 minutes followed by addition of 25 μl stop buffer. 37.5 μl of the mixture were then transferred to a new plate and 12.5 μl of Neutralization buffer added to the wells. After, 50 μl of 2DG6P detection Reagent were added and incubated for 0.5-1 hour at room temperature. Luminescence was measured with 0.3-1 second integration on a luminometer.

CC1(C)COP(=O)(O)O[C@H]1C(=O)NCCC(=O)NCCSC(=O)CCC(=O)O [Compound 1]
activation at 10 µM (10 uM (Example 968)): ≥ 30%

CC(=O)SCCNC(=O)CCNC(=O)[C@@H]1OP(=O)(O)OCC1(C)C [Compound 2]
activation at 10 µM (10 uM (Example 970)): ≥ 10%

CC1(C)COP(=O)(O)O[C@H]1C(=O)NCCC(=O)NCCSC(=O)CC(=O)CCC(=O)O [Compound 3]
activation at 10 µM (10 uM): ≥ 10%
% increase in Glucose Uptake (concentration tested 10 uM): ≥10%

CC1(C)COP(=O)(O)O[C@H]1C(=O)NCCC(=O)NCCSC(=O)/C=C/C(=O)O [Compound 20]
activation at 50 µM (50 uM): ≥ 30%
% increase in Glucose Uptake (concentration tested 50 uM): ≥30%

C[C@@H](O)CC(=O)SCCNC(=O)CCNC(=O)[C@@H]1OP(=O)(O)OCC1(C)C [Compound 39]
activation at 50 µM (50 uM): ≥ 10%
% increase in Glucose Uptake (concentration tested 50 uM): ≥10%

CC(CC(=O)SCCNC(=O)CCNC(=O)[C@@H]1OP(=O)(O)OCC1(C)C)O[C@H](CC(=O)[O-])C[N+](C)(C)C (some centres unmarked) [Compound 47]
activation at 50 µM (50 uM (Example 966)): ≥ 10%

COC(=O)CC(SCCNC(=O)CCNC(=O)[C@@H]1OP(=O)(O)OCC1(C)C)C(=O)OCC[N+](C)(C)C (some centres unmarked) [Compound 57]
activation at 50 µM (50 uM (Example 971)): ≥ 20%

COC(=O)[C@H](C)NP1(=O)OCC(C)(C)[C@H](C(=O)NCCC(=O)NCCSC(=O)CCC(=O)O)O1 (some centres unmarked) [Compound 63]
activation at 50 µM (50 uM (Example 967)): ≥ 30%

COP1(=O)OCC(C)(C)[C@H](C(=O)NCCC(=O)NCCSC(=O)CC(=O)/C=C/C(=O)O)O1 (some centres unmarked) [Compound 117]
activation at 10 µM (10 uM (Example 970)): ≥ 30%

C/C=C/C(=O)SCCNC(=O)CCNC(=O)[C@@H]1OP(=O)(OC)OCC1(C)C (some centres unmarked) [Compound 141]
activation at 50 µM (50 uM (Example 969)): ≥ 30%

C/C=C/C(=O)SCCNC(=O)CCNC(=O)[C@@H]1OP(=O)(N[C@@H](C)C(=O)OC)OCC1(C)C (some centres unmarked) [Compound 144]
activation at 50 µM (50 uM (Example 969)): ≥ 30%

C/C=C/C(=O)SCCNC(=O)CCNC(=O)[C@@H]1OP(=O)(N[C@@H](C)C(=O)O)OCC1(C)C (some centres unmarked) [Compound 145]
activation at 10 µM (10 uM (Example 970)): ≥ 30%

COC(=O)[C@H](C)NP1(=O)OCC(C)(C)[C@H](C(=O)NCCC(=O)NCCSC(=O)CC(C)=O)O1 (some centres unmarked) [Compound 157]
activation at 50 µM (50 uM (Example 971)): ≥ 20%

CCOP1(=O)OCC(C)(C)[C@H](C(=O)NCCC(=O)NCCSC(=O)CC(=O)CC(=O)CCC(=O)O)O1 (some centres unmarked) [Compound 183]
activation at 10 µM (10 uM (Example 970)): ≥ 30%

COC(=O)[C@H](C)NP1(=O)OCC(C)(C)[C@H](C(=O)NCCC(=O)NCCSC(=O)CC(=O)CC(=O)CCC(=O)O)O1 (some centres unmarked) [Compound 185]
activation at 50 µM (50 uM (Example 970)): ≥ 30%

CCOC(=O)CCC(=O)CC(=O)CC(=O)SCCNC(=O)CCNC(=O)[C@@H]1OP(=O)(OC)OCC1(C)C (some centres unmarked) [Compound 211]
activation at 50 µM (50 uM (Example 969)): ≥ 30%

CCOC(=O)CCC(=O)CC(=O)CC(=O)SCCNC(=O)CCNC(=O)[C@@H]1OP(=O)(N[C@@H](C)C(=O)OC)OCC1(C)C (some centres unmarked) [Compound 213]
activation at 50 µM (50 uM (Example 970)): ≥ 30%

CCOC(=O)CCC(=O)CC(=O)CC(=O)SCCNC(=O)CCNC(=O)[C@@H]1OP(=O)(OCC[N+](C)(C)C)OCC1(C)C (some centres unmarked) [Compound 214]
activation at 10 µM (10 uM (Example 972)): ≥ 20%

COC(=O)CC(SCCNC(=O)CCNC(=O)[C@@H]1OP(=O)(N[C@@H](C)C(=O)OC)OCC1(C)C)C(=O)OC (some centres unmarked) [Compound 370]
activation at 50 µM (50 uM (Example 969)): ≥ 30%

COC(=O)CC(SCCNC(=O)CCNC(=O)[C@@H]1OP(=O)(OCC[N+](C)(C)C)OCC1(C)C)C(=O)OC (some centres unmarked) [Compound 371]
activation at 10 µM (10 uM (Example 969)): ≥ 30%

COC(=O)C(CC(=O)O)SCCNC(=O)CCNC(=O)[C@@H]1OP(=O)(OC)OCC1(C)C (some centres unmarked) [Compound 382]
activation at 50 µM (50 uM (Example 970)): ≥ 30%

COC(=O)C(CC(=O)OCC[N+](C)(C)C)SCCNC(=O)CCNC(=O)[C@@H]1OP(=O)(Oc2ccccc2)OCC1(C)C (some centres unmarked) [Compound 393]
activation at 10 µM (10 uM (Example 970)): ≥ 30%

COP1(=O)OCC(C)(C)[C@H](C(=O)NCCC(=O)NCCSC(CC(=O)OCC[N+](C)(C)C)C(=O)O)O1 (some centres unmarked) [Compound 397]
activation at 10 µM (10 uM (Example 969)): ≥ 20%

CCOC(=O)CC(SCCNC(=O)CCNC(=O)[C@@H]1OP(=O)(OC)OCC1(C)C)C(=O)OCC[N+](C)(C)C (some centres unmarked) [Compound 410]
activation at 50 µM (50 uM (Example 969)): ≥ 30%

CC1(C)COC(=O)O[C@H]1C(=O)NCCC(=O)NCCSC(=O)CC(=O)CCC(=O)OCC[N+](C)(C)C [Compound 460]
activation at 50 µM (50 uM (Example 969)): ≥ 30%

C[C@@H](O)CC(=O)SCCNC(=O)CCNC(=O)[C@@H]1OC(=O)OCC1(C)C [Compound 485]
activation at 50 µM (50 uM): ≥ 10%
% increase in Glucose Uptake (concentration tested 50 uM): ≥10%

COC(=O)C(CC(=O)O)SCCNC(=O)CCNC(=O)[C@@H]1OC(=O)OCC1(C)C (some centres unmarked) [Compound 498]
activation at 50 µM (50 uM (Example 971)): ≥ 10%

COC(=O)CC(SCCNC(=O)CCNC(=O)[C@@H]1OC(=O)OCC1(C)C)C(=O)OCC[N+](C)(C)C (some centres unmarked) [Compound 503]
activation at 50 µM (50 uM (Example 972)): ≥ 20%

COC(=O)CC1(C)OCC(C)(C)[C@H](C(=O)NCCC(=O)NCCSC(=O)CCC(=O)O)O1 (some centres unmarked) [Compound 609]
activation at 10 µM (10 uM): ≥ 10%
% increase in Glucose Uptake (concentration tested 10 uM): ≥10%

COC(=O)CCC(=O)SCCNC(=O)CCNC(=O)[C@@H]1OC(C)(C)OCC1(C)C [Compound 852, methyl 4-oxo-4-[[2-(3-[[(4R)-2,2,5,5-tetramethyl-1,3-dioxan-4-yl]formamido]propanamido)ethyl]sulfanyl]butanoate]
activation at 50 µM (50 uM): ≥ 20%
% increase in Glucose Uptake (concentration tested 50 uM): ≥20%

CC(=O)NCCCC(=O)SCCNC(=O)CCNC(=O)[C@@H]1OC(C)(C)OCC1(C)C [Compound 853]
% increase in Glucose Uptake (10 uM (Example 973)): ≥30%
activation at 10 µM (10 uM): ≥ 30%

CCCCCCC(=O)SCCNC(=O)CCNC(=O)[C@@H]1OC(C)(C)OCC1(C)C [Compound 855, N-[2-(heptanoylsulfanyl)ethyl]-3-[[(4R)-2,2,5,5-tetramethyl-1,3-dioxan-4-yl]formamido]propanamide]
activation at 50 µM (50 uM): ≥ 30%
% increase in Glucose Uptake (concentration tested 50 uM): ≥30%

COC(=O)C(=O)SCCNC(=O)CCNC(=O)[C@@H]1OC(C)(C)OCC1(C)C [Compound 856]
% increase in Glucose Uptake (10 uM (Example 973)): ≥30%
activation at 10 µM (10 uM): ≥ 30%

COC(=O)/C=C/C(=O)SCCNC(=O)CCNC(=O)[C@@H]1OC(C)(C)OCC1(C)C [Compound 858, methyl (2E)-4-oxo-4-[[2-(3-[[(4R)-2,2,5,5-tetramethyl-1,3-dioxan-4-yl]formamido]propanamido)ethyl]sulfanyl]but-2-enoate]
% increase in Glucose Uptake (10 uM (Example 973)): ≥30%
activation at 10 µM (10 uM): ≥ 30%

CC(=O)CC(=O)SCCNC(=O)CCNC(=O)[C@@H]1OC(C)(C)OCC1(C)C [Compound 860, N-[2-[(3-oxobutanoyl)sulfanyl]ethyl]-3-[[(4R)-2,2,5,5-tetramethyl-1,3-dioxan-4-yl]formamido]propanamide]
activation at 50 µM (50 uM): ≥ 10%
% increase in Glucose Uptake (concentration tested 50 uM): ≥10%

CCC(=O)SCCNC(=O)CCNC(=O)[C@@H]1OC(C)(C)OCC1(C)C [Compound 861, N-[2-(propanoylsulfanyl)ethyl]-3-[[(4R)-2,2,5,5-tetramethyl-1,3-dioxan-4-yl]formamido]propanamide]
activation at 50 µM (50 uM): ≥ 20%
% increase in Glucose Uptake (concentration tested 50 uM): ≥20%

CC1(C)COP(=O)(OCc2ccccc2)O[C@H]1C(=O)NCCC(=O)NCCS (some centres unmarked) [Compound 862]
activation at 10 µM (10 uM): ≥ 20%
activation at 50 µM (50 uM): ≥ 10%
% increase in Glucose Uptake (concentration tested 10 uM): ≥20%
% increase in Glucose Uptake (concentration tested 50 uM): ≥10%

COC(=O)CCC(=O)SCCNC(=O)CCNC(=O)[C@@H]1OP(=O)(OCc2ccccc2)OCC1(C)C (some centres unmarked) [Compound 863]
activation at 50 µM (50 uM): ≥ 10%
% increase in Glucose Uptake (concentration tested 50 uM): ≥10%

C[C@@H](O)CC(=O)SCCNC(=O)CCNC(=O)[C@@H]1OP(=O)(OCc2ccccc2)OCC1(C)C (some centres unmarked) [Compound 864]
activation at 50 µM (50 uM): ≥ 20%
% increase in Glucose Uptake (concentration tested 50 uM): ≥20%

CCOP1(=O)OCC(C)(C)[C@H](C(=O)NCCC(=O)NCCS)O1 (some centres unmarked) [Compound 865]
activation at 10 µM (10 uM): ≥ 20%
% increase in Glucose Uptake (concentration tested 10 uM): ≥20%

COC(=O)CC1(C)OCC(C)(C)[C@H](C(=O)NCCC(=O)NCCS)O1 (some centres unmarked) [Compound 866]
% increase in Glucose Uptake (10 uM (Example 973)): ≥30%
activation at 10 µM (10 uM): ≥ 30%

C/C=C/C(=O)CC(=O)SCCNC(=O)CCNC(=O)[C@@H]1OP(=O)(OCc2ccccc2)OCC1(C)C (some centres unmarked) [Compound 867]
activation at 10 µM (10 uM): ≥ 20%
% increase in Glucose Uptake (concentration tested 10 uM): ≥20%

CC1(C)OCC(C)(C)[C@H](C(=O)NCCC(=O)NCCSC(=O)C(=O)O)O1 [Compound 868]
% increase in Glucose Uptake (10 uM (Example 973)): ≥30%
activation at 10 µM (10 uM): ≥ 30%

CC1(C)COP(=O)(O)O[C@H]1C(=O)NCCC(=O)NCCS [Compound 869]
activation at 10 µM (10 uM): ≥ 10%
% increase in Glucose Uptake (concentration tested 10 uM): ≥10%

CC1(C)OCC(C)(C)[C@H](C(=O)NCCC(=O)NCCSSCCNC(=O)CCNC(=O)[C@@H]2OC(C)(C)OCC2(C)C)O1 [Compound 870]
activation at 10 µM (10 uM): ≥ 30%
% increase in Glucose Uptake (concentration tested 10 uM): ≥30%
